From the SangsterLogP compilation

settings: pH 2.0

Compared with `CCOC(=O)/C=c1/s/c(=C/c2c(F)cccc2F)c(=O)n1CC(=O)N(C)C`, `C[C@H](NC1=NS(=O)(=O)c2ccccc21)C(=O)OCC(=O)/C=C1/N(C)c2ccccc2C1(C)C` is higher in logD: 3.17 for the first, 4.21 for the second.

Going from `COC(=O)C(=O)C1=C(c2ccc(Cl)cc2)NC(=O)N[C@@H]1c1ccc(Cl)cc1` to `COc1ccc(N(CC(=O)N[C@@H]2CCS(=O)(=O)C2)S(=O)(=O)c2ccc(Cl)c(Cl)c2)cc1`, the logD falls from 3.56 to 3.32.

Going from `COc1ccccc1NC(=S)N[C@H](NC(=O)c1ccccc1C)C(Cl)(Cl)Cl` to `COCON1C(=O)CN(C(C)=O)[C@H]1c1ccc(Cl)cc1Cl`, the logD falls from 3.95 to 1.98.

same assay, conditions: pH 5.0

Compared with `CCC[C@@H]1C(=O)C[C@H](C(C)C)C(C#N)(C#N)C1(C#N)C#N`, `Cc1cc(C)c([C@H]2[C@@H]3CCCC=C3C(C#N)=C(N)C2(C#N)C#N)c(C)c1` is higher in logD: 3.3 for the first, 5.48 for the second.

Compared with `COc1ccc([C@H]2CC(=O)C3=C(C2)Nc2ccc4ccccc4c2[C@@H]3c2ccc3c(c2)OCO3)cc1`, `COC(=O)c1ccc([C@@H]2C3=C(C[C@H](c4ccco4)CC3=O)Nc3ccccc3N2C(=O)C2CC2)cc1` is lower in logD: 5.77 for the first, 4.44 for the second.

Going from `O=C1/C(=C/c2ccsc2)SC(=S)N1c1cccc(C(F)(F)F)c1` to `N#C[C@@H](Cc1cccs1)c1ncc(C(F)(F)F)cc1Cl`, the logD falls from 5.8 to 4.09.

Compared with `CCCOc1ccc(NC(=O)C[C@H]2C(=O)N(c3ccc(Cl)cc3)C(=S)N2C2CC2)cc1`, `O=C(OCCN1C(=O)c2ccccc2C1=O)[C@@H]1C[C@H](O)CN1S(=O)(=O)c1ccc(Cl)cc1` is lower in logD: 5.41 for the first, 3.65 for the second.

Compared with `Cc1cc(Cl)ccc1O[C@@H](C)C(=O)NC1CCCCCC1`, `CCN(CC)S(=O)(=O)c1ccc(/C=C/C(=O)NC2CCCCC2)cc1` is lower in logD: 5.45 for the first, 4.34 for the second.

First: COc1ccc([C@H]2[C@H](C(=O)Nc3ccc(F)cc3F)c3cc(OC)c(OC)cc3C(=O)N2C)cc1OC
Second: COc1ccc([C@H]2C(C#N)=C(N)N(c3ccc(Cl)cc3)C3=C2C(=O)CC(C)(C)C3)cc1OC
The logD of the first is lower: 3.66 for the first, 4.34 for the second.

First: COc1ccc([C@@H]2CCCC[C@H]2O)cc1
Second: COc1ccc([C@@H]2[C@H](C(=O)N3CCCCCC3)c3ccccc3C(=O)N2Cc2ccc(F)cc2)cc1
The logD of the first is lower: 2.85 for the first, 5.01 for the second.

Compared with `CCOC(=O)c1c(NC(=O)[C@@H]2C[C@H]3CC[C@@H]2C3)sc(C(=O)N(CC)CC)c1C`, `Cc1onc(-c2c(F)cccc2Cl)c1C(=O)OCC(=O)N1[C@H](C)CCC[C@H]1C` is lower in logD: 5.05 for the first, 4.38 for the second.

First: CC(=O)c1ccc(NC(=O)CNC(=O)CNC(=O)[C@@H]2O[C@@H]3OC(C)(C)O[C@@H]3[C@H]3OC(C)(C)O[C@H]32)cc1
Second: C=C1NC(=S)N[C@H](c2ccc(-c3ccc(C(C)=O)cc3)o2)[C@H]1C(=O)OC(C)(C)C
The logD of the first is lower: 3.39 for the first, 4.53 for the second.

First: CCOC(=O)C1=C(C)NC(=S)N[C@@H]1c1ccc(OCc2ccc(Cl)cc2)c(OCC)c1
Second: COc1cc([C@H]2NC(=O)NC(C)=C2C(=O)OC(C)C)ccc1OC(F)F
The logD of the first is higher: 5.31 for the first, 3.75 for the second.

First: CSc1ccc(S(=O)(=O)N(CC(=O)NC[C@@H]2CCCO2)c2ccc(C)cc2)cc1
Second: CCCN(CCC)S(=O)(=O)c1ccc(C(=O)N2CC[C@@H]3c4ccccc4C(=O)N3C2)cc1
The logD of the first is lower: 4.3 for the first, 4.55 for the second.

Compared with `Cc1ccc([C@@H](O)P(=O)(OCC(C)C)OCC(C)C)cc1`, `Cc1ccccc1N[C@@H](c1ccccc1F)P(=O)(OC(C)C)OC(C)C` is higher in logD: 4.44 for the first, 5.63 for the second.

First: CC1(C)CC(=O)C2=C(C1)N(c1c(F)cccc1F)C(N)=C(C#N)[C@@H]2c1cccc(Cl)c1
Second: COc1ccccc1NC(=O)C1=C(C)NC(SCC(=O)Nc2ccc(C)c(Cl)c2)=C(C#N)[C@@H]1c1ccco1
The logD of the first is lower: 5.04 for the first, 6.27 for the second.

Going from `C[C@@H]1CCC2[C@]3(C)COC(C)(C)O[C@H]3CC[C@]2(C)[C@@]12CCC1(COC(=O)C1)O2` (stereo partly specified) to `CCN(CC)C(=O)[C@@]12CC[C@@](C)(C(=O)O1)C2(C)C`, the logD falls from 4.24 to 2.66.

Compared with `CS(=O)(=O)N(CC(=O)Nc1ccccc1C(=O)NCc1ccco1)c1ccc(Cl)cc1`, `Cc1c(NC(=O)[C@@H]2CCCCN2S(=O)(=O)c2ccc(Cl)cc2)c(=O)n(-c2ccccc2)n1C` is lower in logD: 4.32 for the first, 3.89 for the second.

First: O=C(c1cccc(COCC(F)(F)C(F)F)c1)N1CC[C@@H](C(F)(F)F)n2nccc21
Second: FC(F)Oc1ccc(NC(=S)NC[C@@H]2CCCO2)cc1Cl
The logD of the first is higher: 4.27 for the first, 3.74 for the second.

Compared with `COc1cc2c(cc1OC)[C@H](COc1ccc3c(C)cc(=O)oc3c1)N(C(=O)C1CCCCC1)CC2`, `COc1cc(/C=N\n2cnc3sc4c(c3c2=O)CCCC4)ccc1OCc1ccccc1` is higher in logD: 5.07 for the first, 5.68 for the second.

Compared with `CCCC[C@H](CC)Cn1c(SCC(=O)Nc2ccc(OC)cc2)nc2c1c(=O)n(C)c(=O)n2C`, `C[C@@H](Sc1nnnn1-c1ccc(Cl)cc1)C(=O)NCC(=O)Nc1ccc(F)c(F)c1F` is lower in logD: 5.51 for the first, 4.52 for the second.

Going from `CC(C)CN1C(=O)/C(=C/[C@@H]2CC=CCC2)SC1=S` to `C[C@H](NC(=O)C1CC1)c1ccccc1`, the logD falls from 6.66 to 1.85.

First: O=C(NC[C@H]1CCCO1)c1cc2nc(C3CC3)cc(C(F)(F)F)n2n1
Second: COc1ccc([C@@H]2[C@@H]3CCCC=C3C(C#N)=C(N)C2(C#N)C#N)cc1COCC(F)(F)F
The logD of the first is lower: 3.33 for the first, 5.5 for the second.

Going from `Cc1ccc(NC(=O)[C@@H]2CCCN2C(=O)OC(C)(C)C)cc1C` to `CCOC(=O)c1c(C)nc(SC[C@@]2(O)CCCC[C@@H]2SC)c(C#N)c1-c1ccccc1`, the logD rises from 3.9 to 6.01.

Compared with `CC[C@H](C)NC(=O)NC(C(F)(F)F)C(F)(F)F`, `COC(=O)N[C@H](O)C(=O)c1ccccc1` is lower in logD: 2.84 for the first, 1.41 for the second.

First: COCCCNC(=S)N1[C@H](C)CCC[C@H]1C
Second: O=C1CC[C@H]2CCCC[C@@]2(O)O1
The logD of the first is higher: 2.8 for the first, 1.16 for the second.

First: Cc1c(Nc2nc3ccccc3nc2Nc2cccc(Cl)c2)c(=O)n(-c2ccccc2)n1C
Second: Cc1cc(Cl)ccc1NC(=S)NCCc1c[nH]c2ccccc12
The logD of the first is higher: 5.96 for the first, 4.34 for the second.

First: CC[C@]1(C)NC(=S)N2N1C(=S)N[C@@]2(C)CC
Second: CC(=O)Oc1ccc(C(=O)Nc2cccc(C(=O)c3cccc(NC(=O)c4ccc(OC(C)=O)cc4)c3)c2)cc1
The logD of the first is lower: 2.44 for the first, 5.34 for the second.

Going from `O=C1C[C@@H](c2c(F)cccc2Cl)c2cc3c(cc2N1)OCCO3` to `COC(=O)[C@H]1OC(c2ccccc2)O[C@H]1C(=O)OC` (stereo partly specified), the logD falls from 3.96 to 2.49.

same assay, conditions: pH 6.5

Going from `CN(c1ccccc1)S(=O)(=O)c1ccc(C(=O)/N=c2/sc3cc([N+](=O)[O-])ccc3n2C)cc1` to `COc1cc(/C=C(\NC(=O)c2ccccc2)C(=O)Nc2cccc(CO)c2)ccc1OC(C)=O`, the logD falls from 5.84 to 4.04.

First: Cc1ccc2[nH]c3nc(N/N=C/C=C/c4ccco4)nnc3c2c1
Second: Cc1ccc(NC(=O)COC(=O)/C(=C/c2cccs2)c2cccs2)c(C)c1
The logD of the first is lower: 2.18 for the first, 3.83 for the second.

First: Cc1ccc(CN2C(=O)/C(=C/[C@@H]3CC=CCC3)SC2=S)cc1
Second: CCCCNC(=S)N(C)/N=C/c1ccc(OCc2ccc(Cl)cc2)c(OC)c1
The logD of the first is lower: 6.26 for the first, 6.8 for the second.

same assay, conditions: pH 7.3

First: CC[C@@H](SC1=Nc2ccccc2C2=N[C@@H](CC(C)C)C(=O)N12)C(=O)Nc1ccc2c(c1)OCO2
Second: O=C(Nc1ccccc1)[C@H]1CC(=O)N(Cc2ccccc2)/C(=N/c2ccc(F)cc2)S1
The logD of the first is lower: 4.85 for the first, 6 for the second.

First: COc1ccc([C@H]2C[C@@H](c3ccc(-c4ccccc4)cc3)Nc3ncnn32)cc1
Second: Cc1cc(C)nc(-n2nc(C)c3c2NC2=CC(C)(C)CC(=O)[C@H]2[C@@H]3c2ccco2)n1
The logD of the first is higher: 5.42 for the first, 4.34 for the second.

same assay, conditions: pH 9.2

`Cc1cc(C(=O)NCCc2c(C)[nH]c3ccccc23)ccc1[N+](=O)[O-]` gave a logD of 4.12.

same assay, conditions: pH 10.0

Going from `COc1ccc(/N=C/c2ccc(/C=N/c3ccc(OC)cc3)cc2)cc1` to `C(=N\n1cnnc1)/c1ccc(-n2nc(-c3ccccc3)cc2-c2ccccc2)cc1`, the logD rises from 5.24 to 5.58.

`COc1ccc([C@@H]2C(C(=O)OCCOC(C)C)=C(C)NC3=C2C(=O)C[C@H](c2cccs2)C3)cc1OC` and `CC1=C(C(=O)OC[C@@H]2CCCO2)[C@H](c2cc([N+](=O)[O-])ccc2Cl)C2=C(CC(C)(C)CC2=O)N1` are within 0.2 log units of each other in logD: 4.45 for the first, 4.53 for the second.

Compared with `COc1ccc2c(c1)C(=O)N(Cc1ccco1)C(=O)/C2=C\Nc1c(C)n(C)n(-c2ccccc2)c1=O`, `CSc1ccc([C@@H]2[C@@H]3C(=O)N(c4cccc(C(F)(F)F)c4)C(=O)[C@H]3ON2c2ccccc2)cc1` is higher in logD: 4.66 for the first, 5.98 for the second.

Going from `CC(=O)c1ccc(N2CCN(C(=O)/C=C/c3ccc(C)o3)CC2)cc1` to `NC(=O)c1cc(N2C(=O)[C@H]3CC=CC[C@@H]3C2=O)ccc1N1CCCCC1`, the logD falls from 4.3 to 3.68.

Compared with `CCC[C@@H](C)NC(=O)COc1ncnc2sc3c(c12)CC[C@@H](C)C3`, `CCc1ccc([C@@H]2C(C(=O)OC(C)C)=C(C)N=C3SCCC(=O)N32)cc1` is higher in logD: 4.55 for the first, 4.75 for the second.

Going from `Cc1ccc(Cl)c(OCc2ccc(-c3nc4c5c[nH]nc5ncn4n3)o2)c1` to `CC(C)(C)C(=O)[C@H]1[C@H](c2ccsc2)C(C#N)(C#N)[C@H]2C=Cc3ccccc3N12`, the logD falls from 4.4 to 3.37.

same assay, conditions: pH 10.5

Compared with `COc1ccc([C@H]2C(C#N)=C(N)N(c3ccccc3C(F)(F)F)C3=C2C(=O)CCC3)cc1CSc1ccccn1`, `COCCOC(=O)C1=C(C)NC2=C(C(=O)CC(c3cccc(OC)c3)C2)C1c1coc2ccc(C)cc2c1=O` (stereo unspecified) is lower in logD: 5.45 for the first, 5.23 for the second.

Going from `O=C(c1ccccc1)N1CCCC[C@@H](Sc2nnc3ccccn23)C1=O` to `CN(c1ccccc1)S(=O)(=O)c1ccc(C(=O)N2CCN(c3ccccc3Cl)CC2)cc1`, the logD rises from 3.14 to 5.31.

Compared with `Clc1ccc(/C=N/NC2=Cn3c(nc4ccccc43)NN2)cc1`, `CN1C(=O)N(C)C2(c3ccccc3)Nn3c(s/c(=C\c4ccc(Br)cc4)c3=O)=NC12c1ccccc1` (stereo unspecified) is higher in logD: 4.81 for the first, 5.72 for the second.

Compared with `COC(=O)CC1=C(C(=O)OC)[C@]2(C(=O)Nc3ccccc32)C(C(=O)OCc2ccccc2)=C(N)O1`, `C[C@H](NC(=O)CSc1ncnc2c1cnn2-c1ccccc1)c1ccccc1` is higher in logD: 4.25 for the first, 4.73 for the second.

Compared with `N#C/C(=C/c1ccc2c(c1)OCO2)C(=O)N=C1c2ccccc2CN1c1cccc([N+](=O)[O-])c1`, `Cc1cc2c(c(=O)o1)[C@@H](c1cccc(F)c1F)C(C#N)=C(N)O2` is lower in logD: 5.4 for the first, 3.1 for the second.

Compared with `COc1ccc(N2C(=O)C[C@@H](Sc3nc(C)cc(C)n3)C2=O)cc1OC`, `C=CCn1/c(=N/C(=O)c2cc(OC)c(OC)c(OC)c2)sc2cccc(OC)c21` is higher in logD: 2.95 for the first, 5.14 for the second.

First: CCOc1cc(/C=N/n2cnc3sc(C)c(C)c3c2=O)cc(Br)c1OCC(N)=O
Second: C=CCn1c(SCC(=O)N2C[C@@]3(C)C[C@@H]2CC(C)(C)C3)nc2sc(CC)cc2c1=O
The logD of the first is lower: 4.98 for the first, 6.04 for the second.

`CCCc1[nH]nc2c1[C@H](c1ccsc1C)C(C#N)=C(N)O2` showed a logD of 3.83.
